The experiment relates to CEM cells HIV-1 protection, formazan growth assay. In words: NCI AIDS Antiviral Assay. As to conditions: for IC50: measured here: growth of uninfected CEM cells. The gist of the method:
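Soluble formazan readout of cell growth; CEM cells ± HIV-1; 5 drug concs. ≥50% protection → retest; ≥50% again = moderately active; reproducible 100% = confirmed active.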

Each structure is given as a SMILES string. Activity calls are given as the source filed them.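 Rule for the calls: active = compounds giving half or more protection of infected cells from virus-caused growth loss, again on retest; inactive = the rest.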 Where a SMILES comes first, the peptide text is derived from it. [ ]: non-standard residue; d: D form. The star is where a group is joined. ξ: configuration not given here. ξPhe(4-NO2) = NC(Cc1ccc([N+](=O)[O-])cc1)C(=O)O; Boc = CC(C)(C)OC(=O)*

The term EC50 denotes the concentration that produces a half-maximal response. One may read the IC50 as the point on the concentration scale where inhibition reaches its midpoint. Lower therefore signals inhibition by little substance. Regarding `CC1CSc2nc3[nH]c(=S)[nH]c3c(=O)n2C1` (stereo not drawn), the EC50 is above 200 µM and the half-inhibitory concentration (IC50) was above 200 µM.

As to `S=P(NC1CCCCC1)(NC1CCCCC1)NC1CCCCC1`, the EC50 is above 200 µM and the 50% inhibitory concentration (IC50) was above 200 µM.

For the compound `CCOC(=O)c1c[nH]c(C(=O)C=[N+]=[N-])c1C1CCN(CC)C1=S` (stereo not drawn), the EC50 is above 200 µM and the concentration for half-maximal inhibition (IC50) is 138 µM.

Regarding `CCN1CCN(c2ccc(Nc3ccnc4ccc5nn(C)nc5c34)cc2)CC1`, the EC50 was above 18.6 µM and the half-maximal inhibitory concentration (IC50) is 7.24 µM.

As for `Cc1ccc(NC(=O)/C(CC(=O)c2sc(Nc3ccccc3Cl)nc2C)=N\Nc2ccc([N+](=O)[O-])cc2[N+](=O)[O-])c(C)c1`, the EC50 is above 200 µM and the IC50 came out at 97.7 µM.

Turning to `CC(C)CNC(=O)Cn1c2c(c3ccccc31)CCCC2`, the EC50 is above 200 µM and the IC50 came out at 81.3 µM.

For the compound `OCC1OC(NC(=S)NCCC(F)(F)C(F)(F)C(F)(F)C(F)(F)C(F)(F)C(F)(F)F)C(O)C(O)C1O` (stereo not drawn), the EC50 was above 200 µM and the concentration for half-maximal inhibition (IC50) was 120 µM.

On to `O=C(Nc1ccn(CCOC(=O)c2ccccc2)c(=O)n1)c1ccccc1`, for which the EC50 was above 186 µM and the IC50 was above 186 µM.

Turning to `O=[N+]([O-])c1cc(C=NC23CC4CC(CC(C4)C2)C3)ccc1Cl`, the EC50 is above 200 µM and the IC50 turned out to be 3.72 µM.

`O=c1n(/N=C/c2ccccc2)c(=O)n2n1C1C=CC2CC1`: the EC50 was above 200 µM and the 50% inhibitory concentration (IC50) is above 200 µM.

With `CC1CCC2c3c([nH]c4ccccc34)C3C(=O)N(C4CCCCC4)C(=O)C3C2C1` (stereo not drawn), the EC50 is above 200 µM and the IC50 came to 9.33 µM.

Regarding `CCOC(=O)C1SC(=Nc2ccc(Cl)cc2Cl)N=C1C` (stereo not drawn), the result was inactive.

For the compound `CCOC(=O)C(c1ccccc1)[N+](C)(C)C` (stereo not drawn), the EC50 was above 200 µM and the IC50 was above 200 µM.

Consider `O=C1C=C(c2ccccc2)Sc2ccccc2N1`, for which the EC50 is above 89.1 µM and the IC50 amounted to 47.9 µM.

As to `CSc1nc(Cl)c2c(n1)Sc1nc3ccccc3n1N=C2`, the EC50 was above 100 µM and the half-inhibitory concentration (IC50) was found to be 55 µM.

For `CCOC(=O)C(C)c1nc2cc(F)c(N3CCOCC3)cc2[nH]c1=O` (stereo not drawn), the EC50 is above 200 µM and the IC50 stood at 95.5 µM.

For the compound `COc1cc2c(cc1OC)C1CC(=O)C3=C(CCCC3)N1CC2` (stereo not drawn), the EC50 is above 200 µM and the half-inhibitory concentration (IC50) is 91.2 µM.

For `C=CCSSSCC=C`, the EC50 is above 120 µM and the half-maximal inhibitory concentration (IC50) amounted to 63.1 µM.

Turning to `Cc1c(/C=C/C(=O)O)no[n+]1[O-]`, the EC50 is above 200 µM and the IC50 was above 200 µM.

With `O=C1/C(=C/c2ccccc2)CN(C(=O)CCN2CCCC2)C/C1=C\c1ccccc1`, the EC50 was above 575 µM and the concentration for half-maximal inhibition (IC50) is 0.813 µM.

On to `N#CCCN(c1ccc(C=Nc2ccccc2)cc1)S(=O)(=O)c1ccccc1`, for which the outcome was inactive.

Consider `COc1c(-c2ccccc2)nc2ccc(Oc3ccccc3)nn12`, for which the EC50 is above 56.2 µM and the IC50 is above 56.2 µM.

As to `CC1(C)CC(C#Cc2ccccc2)CC(C)(C)N1O`, the EC50 was above 200 µM and the IC50 is 34.7 µM.

For `Cc1ccccc1OCC(COC(=O)Nc1ccccc1)OC(=O)Nc1ccccc1` (stereo not drawn), the EC50 is above 32.4 µM and the 50% inhibitory concentration (IC50) is above 32.4 µM.

On to `O=C(O)c1cc(Cl)n[nH]c1=O`, for which the EC50 is above 1410 µM and the IC50 is above 1410 µM.

Turning to `Cc1cc(N(CCC#N)CCC#N)ccc1N=Nc1ccc([N+](=O)[O-])cc1`, the EC50 is above 14.5 µM and the IC50 was above 14.5 µM.

For `O=c1c(-c2ccccc2)c(SCCO)n(-c2ccccc2)c(=S)n1-c1ccccc1`, the EC50 is above 200 µM and the concentration for half-maximal inhibition (IC50) is above 200 µM.

For `O=c1[nH][nH]c(=O)c2nc(Nc3ccc(Cl)cc3)ncc12`, the EC50 was above 34.7 µM and the IC50 is above 34.7 µM.

Regarding `COC(=O)[C@H]1C=C[C@@H](C)n2c(=O)c3cc4ccccc4cc3c(=O)n21`, the EC50 is above 21.4 µM and the 50% inhibitory concentration (IC50) was above 21.4 µM.

As to `OCC12COC(c3ccccc3)N1C(c1ccccc1)OC2` (stereo not drawn), the EC50 is above 200 µM and the half-maximal inhibitory concentration (IC50) is 11.2 µM.

Regarding `COc1ccc(C(c2c(O)c3ccccc3oc2=O)N2CCOCC2)cc1` (stereo not drawn), the EC50 is above 200 µM and the IC50 is above 100 µM.

With `CCOC(=O)CNC(=O)C(CSSCC(NC(=O)OCc1ccccc1)C(=O)OC)NC(=O)C(NC(=O)OCc1ccccc1)C(C)C` (stereo not drawn), the EC50 was above 200 µM and the 50% inhibitory concentration (IC50) worked out at 129 µM.

On to `Cc1ccc(N2C(=O)/C(=C/c3ccc(N(CCC#N)CCC#N)cc3)N=C2COc2ccc(Cl)cc2Cl)cc1`, for which the result was inactive.

As to `NC(=O)NCCSC1(SCCNC(N)=O)CCCCC1`, the EC50 was above 200 µM and the IC50 is above 200 µM.

For `CCOC(=O)c1ccc(NCc2ccc3oc(=O)c(-c4ccccc4)nc3c2)cc1`, the EC50 was above 135 µM and the IC50 worked out at 38.9 µM.

As for `Cc1ccc2c(c1)C(C(=O)N[C@@H]1C(=O)N3[C@@H]1SC(C)(C)[C@@H]3C(=O)O)OCCC2` (stereo partly drawn), the EC50 is above 200 µM and the IC50 was above 200 µM.

For the compound `O=c1cc(-c2ccccc2)oc2cc(OCCCCCCCCCCOc3ccc4c(=O)cc(-c5ccccc5)oc4c3)ccc12`, the EC50 is above 1.7 µM and the concentration for half-maximal inhibition (IC50) was above 1.7 µM.

On to `O=C(O)C(C(C(=O)O)P(=O)(O)O)P(=O)(O)O` (stereo not drawn), for which the EC50 is above 200 µM and the IC50 is above 200 µM.

Turning to `CC(=O)OCC1OC(n2c(-c3ccc(Cl)cc3)ccc(C#N)c2=S)C(OC(C)=O)C(OC(C)=O)C1OC(C)=O` (stereo not drawn), the EC50 was above 200 µM and the IC50 is above 200 µM.

In the case of `CCOC(=O)C(C)(c1c(C)n(C)c2ccccc12)c1c(C)n(C)c2ccccc12`, the EC50 is above 200 µM and the IC50 was above 100 µM.

As for `COC(=O)C(=O)C(C(=O)C(=O)Nc1ccc([N+](=O)[O-])cc1C#N)c1nc2ccc([N+](=O)[O-])cc2[nH]c1=O` (stereo not drawn), the EC50 is above 490 µM and the 50% inhibitory concentration (IC50) came out at 209 µM.

For `N#C/C(=C\n1ccc(=O)[nH]c1=S)c1nc2ccccc2s1`, the EC50 was above 200 µM and the IC50 is above 200 µM.

On to `CCC(c1nc2ccccc2c(=O)n1NC(=O)C(C)(C)C)C1(O)CCCCC1` (stereo not drawn), for which the EC50 was above 200 µM and the IC50 came to 107 µM.

With `O=C(NC(=O)c1ccccc1)Nc1ccccc1`, the EC50 was above 14.1 µM and the half-inhibitory concentration (IC50) was above 14.1 µM.

As for `CCOP(=O)(OCC)/C(C#N)=C\c1ccsc1`, the EC50 is above 912 µM and the half-inhibitory concentration (IC50) was above 912 µM.

Turning to `Nc1nc(NNc2ccc(Cl)c(Cl)c2)cc(=O)[nH]1`, the EC50 is above 200 µM and the half-maximal inhibitory concentration (IC50) came to 49 µM.

As for `Cc1nc(C)c(C(=O)NNC(=O)C[N+](C)(C)C)cc1C(=O)NNC(=O)C[N+](C)(C)C`, the EC50 is above 200 µM and the IC50 was above 200 µM.

As for `COc1ccc2c(c1)[n+](=O)c(C(=O)CC(=O)C(=O)Nc1cccc(Cl)c1C)c(C)n2[O-]`, the EC50 was above 100 µM and the IC50 turned out to be 46.8 µM.

`C=CP(=S)(c1ccccc1)c1ccccc1`: the EC50 is above 56.2 µM and the IC50 is above 56.2 µM.

Consider `NC(CCOCCP(=O)(O)CCC1C=CC=CC1)C(=O)O` (stereo not drawn), for which the EC50 is above 200 µM and the IC50 is above 200 µM.

For the compound `O=C1C(c2ccccc2)=C(c2ccccc2)C1(Cl)Cl`, the EC50 is above 200 µM and the half-maximal inhibitory concentration (IC50) was found to be 2.45 µM.

On to `Cc1csc(NNC(=O)Nc2ccccc2)n1`, for which the EC50 is above 129 µM and the IC50 stood at 43.7 µM.

Regarding `Cn1c(-c2cccc(N)c2)[n+](C)c2ccccc21`, the EC50 is above 200 µM and the IC50 came out at 126 µM.

On to `CC(=O)NC(CCC(=O)c1ccc(C)cc1)(C(=O)O)C(=O)O`, for which the EC50 is above 200 µM and the 50% inhibitory concentration (IC50) is above 200 µM.

For `O=C1CNc2cc(N3CCN(c4ccccc4)CC3)ccc2N1`, the EC50 is above 200 µM and the IC50 was found to be 25.1 µM.

In the case of `O=C1NC(N2CCCC(CO)C2)=N/C1=C\c1ccccc1` (stereo not drawn), the EC50 was above 200 µM and the IC50 was above 200 µM.

As to `CS/C(c1ccccc1)=[N+](\[O-])Cc1ccccc1`, the EC50 is above 646 µM and the IC50 stood at 457 µM.

For the compound `CC(O)(/C=C/c1ccccc1)P(=O)(O)c1ccccc1` (stereo not drawn), the EC50 is above 200 µM and the IC50 is above 200 µM.

For `CCNC(=O)CNC(=O)C(Cc1ccc([N+](=O)[O-])cc1)NC(=O)OC(C)(C)C` (stereo not drawn) (Boc-[ξPhe(4-NO2)]-Gly-NHEt), the 50% effective concentration (EC50) is 162 µM and the 50% inhibitory concentration (IC50) was 813 µM.

Regarding `Nc1ccn(C2CCC3(CO)CC23)c(=O)n1` (stereo not drawn), the EC50 was above 50.1 µM and the 50% inhibitory concentration (IC50) was above 50.1 µM.

As to `O=S(=O)(/N=C1/SC(=Nc2ccccc2)N(c2ccccc2)/C1=N/S(=O)(=O)c1ccccc1)c1ccccc1`, the EC50 was above 200 µM and the half-inhibitory concentration (IC50) was determined as 2.82 µM.

As for `O=C(NCCCCN1CCCCCC1)C1c2ccccc2-c2ccccc21`, the EC50 was above 200 µM and the concentration for half-maximal inhibition (IC50) came to 91.2 µM.

Turning to `Cc1ccc(S(=O)(=O)C2=c3ncccc3=C3C(=O)c4ccccc4C(=O)C32)cc1` (stereo not drawn), the outcome was inactive.

With `COc1ccc(S(=O)(=O)N(CC(=O)O)c2ccccc2)cc1`, the outcome was inactive.

Consider `C/C(=N\NC(=S)NCCCNC(=S)N/N=C(\C)c1ccccn1)c1ccccn1`, for which the EC50 is above 200 µM and the concentration for half-maximal inhibition (IC50) was 3.16 µM.

As to `OC(CC(O)(C(F)(F)F)C(F)(F)F)C(O)c1ccco1` (stereo not drawn), the EC50 was above 200 µM and the half-maximal inhibitory concentration (IC50) came out at 58.9 µM.

With `COCN1C(=O)CN=C(c2ccccc2)c2cc(NO)ccc21`, the 50% effective concentration (EC50) was 16.2 µM and the half-inhibitory concentration (IC50) was determined as 21.9 µM.

Consider `O=c1[nH]c2ccccc2c(O)c1N=Nc1ccc(N=Nc2ccc(S(=O)(=O)O)cc2)cc1`, for which the EC50 is above 200 µM and the IC50 is above 200 µM.

Take `O=C1CS(=O)(=O)C2(CCCCC2)C(=O)N1`: the EC50 is above 200 µM and the half-inhibitory concentration (IC50) was above 200 µM.

Consider `CN(C)CCNc1nc(-c2ccc3ccccc3c2)nc2nc[nH]c12`, for which the EC50 is above 200 µM and the IC50 was found to be 3.8 µM.

`N#Cc1c(N=C/C=C/c2ccccc2)c(C(=O)Nc2ccccc2)n2c1CCCC2`: the EC50 is above 200 µM and the concentration for half-maximal inhibition (IC50) was above 200 µM.

Regarding `C[S+](C)CCOC(=O)C(=[N+]=[N-])c1ccc([N+](=O)[O-])cc1`, the outcome was inactive.
